What was measured:
RGS4 ubiquitylation = assay: ECL assay for N-end rule ubiquitylation of RGS4; assay type: biochemical; conditions: 1 mM inhibitor; rabbit reticulocyte lysate; 50 μM MG-132; 30° C.; FIG. 2(A),(B)
Description: (§1) Protein was produced from the plasmid DNA in a transcription-translation reaction mixture containing rabbit reticulocyte lysate and SP6 RNA polymerase (TNT SP6 Quick Mix, Promega) and that was further supplemented with 20 μM methionine, 8-30 μg/ml plasmid DNA, 20 μg/ml biotinylated Lys-tRNA (transcend tRNA, Promega), and 50 μM of the proteosome inhibitor MG-132 (Calbiochem) in a total volume of 12.5 μl. Ubiquitylation of newly synthesized proteins occurred in the same reaction mixtures and was driven by the ubiquitylation system present in reticulocyte lysates. An ECL-based ubiquitylation assay (described below) was used to determine if the newly synthesized protein was ubiquitylated. […]
(§2) The reactions were allowed to proceed for a desired period of time at 30° C. In some experiments, several reaction time points were analyzed. […] Thereafter the plate was washed three times with 20 mM Tris-HCl, 0.004% Triton X-100 followed by addition of 150 μl of a buffered solution containing tripropylamine (MSD Read Buffer, Meso-Scale Discovery, Gaithersburg Md.) into each well. ECL signals from labels bound to the electrode surfaces were measured using a Sector HTS instrument. […]

tau ubiquitylation = assay: ECL assay for N-end rule ubiquitylation of tau; assay type: biochemical; conditions: 1 mM inhibitor; rabbit reticulocyte lysate; 50 μM MG-132; 30° C.; FIG. 3(A),(B)
Description: as §1, §2

aprataxin ubiquitylation = assay: ECL assay for N-end rule ubiquitylation of aprataxin; assay type: biochemical; conditions: 1 mM inhibitor (equivalent concentrations); rabbit reticulocyte lysate; 50 μM MG-132; 30° C.; FIG. 4(A),(B)
Description: as §1
(§3) The reactions were allowed to proceed for a desired period of time at 30° C. In some experiments, several reaction time points were analyzed. […] Thereafter the plate was washed three times with 20 mM Tris-HCl, 0.004% Triton X-100 followed by addition of 150 μl of a buffered solution containing tripropylamine (MSD Read Buffer, Meso-Scale Discovery, Gaithersburg Md.) into each well. ECL signals from labels bound to the electrode surfaces were measured using a Sector HTS instrument.
Aprataxin was produced using IMAGE clone #3994375 and analyzed for its ability to act as an N-end rule substrate by ECL assay and by gel electrophoresis as described in the Materials and Methods.

[1] = system: synaptotagmin-like protein 2 ubiquitylation; assay: ECL assay for N-end rule ubiquitylation of synaptotagmin-like protein 2; assay type: biochemical; conditions: 1 mM inhibitor; rabbit reticulocyte lysate; 50 μM MG-132; 30° C.; FIG. 5(A),(B)
Description: as §1, §3
Synaptotagmin-like protein 2 was produced using IMAGE clone #3887550 and analyzed for its ability to act as an N-end rule substrate by ECL assay and by gel electrophores is as described in the Materials and Methods.

HMGN2 ubiquitylation = assay: ECL assay for N-end rule ubiquitylation of HMGN2; assay type: biochemical; conditions: 1 mM inhibitor; rabbit reticulocyte lysate; 50 μM MG-132; 30° C.; FIG. 6(A),(B)
Description: as §1, §3
High Mobility Group Chromosomal Protein 17 (now renamed HMGN2) was produced using IMAGE clone #3455121 and analyzed for its ability to act as an N-end rule substrate by ECL assay as described in Materials and Methods. […]

cdc6 ubiquitylation = assay: ECL assay for N-end rule ubiquitylation of CDC6; assay type: biochemical; conditions: 1 mM inhibitor; rabbit reticulocyte lysate; 50 μM MG-132; 30° C.; FIG. 7(A),(B)
Description: as §1, §3
Cell Cycle Controller cdc6 was produced using IMAGE clone #3867414 and analyzed for its ability to act as an N-end rule substrate by ECL assay and by gel electrophoresis as described in the Materials and Methods.

HSPC144 ubiquitylation = assay: ECL assay for N-end rule ubiquitylation of HSPC144; assay type: biochemical; conditions: 1 mM inhibitor; rabbit reticulocyte lysate; 50 μM MG-132; 30° C.; FIG. 8(A),(B)
Description: as §1, §3
HSPC144 was produced using IMAGE clone #3907737 and analyzed for its ability to act as an N-end rule substrate by ECL assay as described in the Materials and Methods.

PinX1 ubiquitylation = assay: ECL assay for N-end rule ubiquitylation of PinX1; assay type: biochemical; conditions: 1 mM inhibitor; rabbit reticulocyte lysate; 50 μM MG-132; 30° C.; FIG. 9(A),(B)
Description: as §1, §3
PinX1 was produced using IMAGE clone #3911679 and analyzed for its ability to act as an N-end rule substrate by ECL assay as described in the Materials and Methods.

HMGN3 ubiquitylation = assay: ECL assay for N-end rule ubiquitylation of HMGN3; assay type: biochemical; conditions: 1 mM inhibitor; HMGN3 from clones #3890883 and #4749335, effect most pronounced for clone #4749335; rabbit reticulocyte lysate; 50 μM MG-132; 30° C.; FIG. 10
Description: as §1, §3
HMGN3 was produced using IMAGE clones #3890883 and #4749335 and analyzed for its ability to act as an N-end rule substrate by ECL assay as described in Materials and Methods.

[2] = system: RGS4 ubiquitin/proteosome degradation via N-end rule pathway; assay: Denaturing gel analysis of N-end rule-dependent degradation of RGS4; assay type: biochemical, rabbit; conditions: [14C]-lysine, MG-132 omitted, SDS-PAGE time course, 30° C.; FIG. 2(C)
Description: Proteins were synthesized as described in the previous section except that biotinylated Lys-tRNA was substituted with [^14C]-lysine, and MG-132 was omitted. The reactions were incubated at 30° C. for indicated times. They were stopped by transferring of aliquots of reactions into SDS-sample buffer. The samples were heated for 5 min at 95° C. and fractionated by SDS-PAGE on 4-20% gradient polyacrylamide gels. Gels were soaked in Amplify™ fluorographic reagent (Amersham Pharmacia Biotech), dried and exposed to X-ray films.
RGS4 was produced and characterized as an N-end rule substrate as described in the Materials and Methods section. RGS4 is a known Type 1 N-end rule ubiquitylation substrate (Davydov and Varshavsky, 2000, J. Biol. Chem., 275: 22931).

Row | Substance | % of RGS4 ubiquitylation in the presence of specific N-end rule inhibitors compared to the reaction in the absence of the inhibitors (RGS4 ubiquitylation) | % of tau ubiquitylation in the presence of specific N-end rule inhibitors compared to the reaction in the absence of the inhibitors (tau ubiquitylation) | % of aprataxin ubiquitylation in the presence of specific N-end rule inhibitors compared to the reaction in the absence of the inhibitors (aprataxin ubiquitylation) | % of synaptotagmin-like protein 2 ubiquitylation in the presence of specific N-end rule inhibitors compared to the reaction in the absence of the inhibitors [1] | % of HMGN2 ubiquitylation in the presence of specific N-end rule inhibitors compared to the reaction in the absence of the inhibitors (HMGN2 ubiquitylation) | % of cdc6 ubiquitylation in the presence of specific N-end rule inhibitors compared to the reaction in the absence of the inhibitors (cdc6 ubiquitylation) | % of HSPC144 ubiquitylation in the presence of specific N-end rule inhibitors compared to the reaction in the absence of the inhibitors (HSPC144 ubiquitylation) | % of PinX1 ubiquitylation in the presence of specific N-end rule inhibitors compared to the reaction in the absence of the inhibitors (PinX1 ubiquitylation) | % of HMGN3 ubiquitylation in the presence of specific N-End Rule inhibitors compared to the reaction in the absence of the inhibitors (HMGN3 ubiquitylation) | accumulation of the C-terminal fragment of RGS4 having the N-terminal Met removed (autoradiogram) [2]
1 | Arg-β-Ala | inhibit RGS4 ubiquitylation to a similar extent | inhibit tau ubiquitylation to a similar extent | inhibit aprataxin ubiquitylation to a similar extent | little to no effect | inhibit HMGN2 ubiquitylation to a similar extent | inhibit cdc6 ubiquitylation to a similar extent | inhibit HSPC ubiquitylation to a similar extent | inhibit PinX1 ubiquitylation to a similar extent | inhibit HMGN3 ubiquitylation to a greater extent | time dependent accumulation exclusively in the presence of Arg-β-Ala inhibitor
2 | Trp-Ala | little to no effect | little to no effect | little to no effect | inhibit synaptotagmin-like protein 2 ubiquitylation to a similar extent | little to no effect | smaller effect | no effect | no effect | little effect | 

— patent publication US8530408B2, “Substrates of N-end rule ubiquitylation and methods for measuring the ubiquitylation of these substrate” (Meso Scale Technologies LLC, priority 2002, dated 2013)
